Laboratory results: PMC4287394 (Clinical cancer research : an official journal of the …, 2014)
Several values for one entry are separate records, joined by “and”; a condition that tells them apart may be missing. Equal values may be shown once.

Assay: Phase I safety: adverse events, DLT, MTD, RP2D
Type: in vivo, human
Settings: for Patients with DLT (grade 3 maculopapular rash): 21/28 schedule
[1] = 330mg 21/28, 7 patients, grade ≥3
[2] = 330mg 28/28, 10 patients, all grades
[3] = 330mg 28/28, 10 patients, grade ≥3
[4] = 330mg once-daily 28/28, 10 patients
[5] = 340mg 28/28, 7 patients, all grades
[6] = 340mg 28/28, 7 patients, grade ≥3
[7] = 400mg 28/28, 1 patient, all grades
[8] = 450mg 21/28, 3 patients, all grades
[9] = 450mg 21/28, 3 patients, grade ≥3
[10] = all dose levels 21 or 28/28, 60 patients, all grades
[11] = all dose levels 21 or 28/28, 60 patients, grade ≥3

## CS(=O)(=O)N1CCN(Cc2cc3nc(-c4cccc5[nH]ncc45)nc(N4CCOCC4)c3s2)CC1 [pictilisib, 2-(1H-indazol-4-yl)-6-(4-methanesulfonyl-piperazin-1-ylmethyl)-4-morpholin-4-yl-t hieno[3,2-d]pyrimidine]
[1]
  Any treatment-related adverse event, no. of patients: 2
  Decreased appetite, no. of patients with treatment-related AE: 0
  Diarrhea, no. of patients with treatment-related AE: 0
  Dysgeusia, no. of patients with treatment-related AE: 0
  Fatigue, no. of patients with treatment-related AE: 0
  Nausea, no. of patients with treatment-related AE: 0
  Rash (all rash preferred terms), no. of patients with treatment-related AE: 1
  Vomiting, no. of patients with treatment-related AE: 0
  Xeroderma, no. of patients with treatment-related AE: 0
[2]
  Any treatment-related adverse event, no. of patients: 10
  Decreased appetite, no. of patients with treatment-related AE: 6
  Diarrhea, no. of patients with treatment-related AE: 7
  Dysgeusia, no. of patients with treatment-related AE: 5
  Fatigue, no. of patients with treatment-related AE: 6
  Nausea, no. of patients with treatment-related AE: 9
  Rash (all rash preferred terms), no. of patients with treatment-related AE: 4
  Vomiting, no. of patients with treatment-related AE: 3
  Xeroderma, no. of patients with treatment-related AE: 4
[3]
  Any treatment-related adverse event, no. of patients: 2
  Decreased appetite, no. of patients with treatment-related AE: 0
  Diarrhea, no. of patients with treatment-related AE: 1
  Dysgeusia, no. of patients with treatment-related AE: 0
  Fatigue, no. of patients with treatment-related AE: 0
  Nausea, no. of patients with treatment-related AE: 0
  Rash (all rash preferred terms), no. of patients with treatment-related AE: 2
  Vomiting, no. of patients with treatment-related AE: 0
  Xeroderma, no. of patients with treatment-related AE: 1
[4]
  Patients with grade 1 or 2 rash: 2
  Patients with grade 3 rash (after the DLT-defining window): 2
330mg once-daily, 7 patients
  Patients with DLT (grade 3 maculopapular rash): 1 of 7 and 1
340mg
  Patients with grade 3 pneumonitis: 1
[5]
  Any treatment-related adverse event, no. of patients: 6
  Decreased appetite, no. of patients with treatment-related AE: 3
  Diarrhea, no. of patients with treatment-related AE: 1
  Dysgeusia, no. of patients with treatment-related AE: 2
  Fatigue, no. of patients with treatment-related AE: 3
  Nausea, no. of patients with treatment-related AE: 4
  Rash (all rash preferred terms), no. of patients with treatment-related AE: 1
  Vomiting, no. of patients with treatment-related AE: 4
  Xeroderma, no. of patients with treatment-related AE: 0
[6]
  Any treatment-related adverse event, no. of patients: 2
  Decreased appetite, no. of patients with treatment-related AE: 0
  Diarrhea, no. of patients with treatment-related AE: 0
  Dysgeusia, no. of patients with treatment-related AE: 0
  Fatigue, no. of patients with treatment-related AE: 0
  Nausea, no. of patients with treatment-related AE: 0
  Rash (all rash preferred terms), no. of patients with treatment-related AE: 0
  Vomiting, no. of patients with treatment-related AE: 0
  Xeroderma, no. of patients with treatment-related AE: 0
[7]
  Any treatment-related adverse event, no. of patients: 1
  Decreased appetite, no. of patients with treatment-related AE: 0
  Diarrhea, no. of patients with treatment-related AE: 0
  Dysgeusia, no. of patients with treatment-related AE: 0
  Fatigue, no. of patients with treatment-related AE: 1
  Nausea, no. of patients with treatment-related AE: 1
  Rash (all rash preferred terms), no. of patients with treatment-related AE: 1
  Vomiting, no. of patients with treatment-related AE: 0
  Xeroderma, no. of patients with treatment-related AE: 0
[8]
  Any treatment-related adverse event, no. of patients: 3
  Decreased appetite, no. of patients with treatment-related AE: 1
  Diarrhea, no. of patients with treatment-related AE: 0
  Dysgeusia, no. of patients with treatment-related AE: 1
  Fatigue, no. of patients with treatment-related AE: 2
  Nausea, no. of patients with treatment-related AE: 2
  Rash (all rash preferred terms), no. of patients with treatment-related AE: 3
  Vomiting, no. of patients with treatment-related AE: 2
  Xeroderma, no. of patients with treatment-related AE: 1
[9]
  Any treatment-related adverse event, no. of patients: 2
  Decreased appetite, no. of patients with treatment-related AE: 0
  Diarrhea, no. of patients with treatment-related AE: 0
  Dysgeusia, no. of patients with treatment-related AE: 0
  Fatigue, no. of patients with treatment-related AE: 0
  Nausea, no. of patients with treatment-related AE: 0
  Rash (all rash preferred terms), no. of patients with treatment-related AE: 2
  Vomiting, no. of patients with treatment-related AE: 0
  Xeroderma, no. of patients with treatment-related AE: 0
450mg once-daily 21/28
  Time of presentation of DLT rash after commencement of daily dosing: approximately 2 weeks
  Time to spontaneous resolution of DLT rash after treatment discontinuation: 2 weeks
450mg once-daily 21/28, 2 patients
  Body surface area covered by DLT maculopapular rash: 70-80%
450mg once-daily, 3 patients
  Patients with DLT (grade 3 maculopapular rash): 2 of 3 and 2
28/28 schedule (330mg, 340mg, 400mg)
  DLT on continuous schedule: no DLT was observed
All 60 patients
  Treatment-related deaths: no treatment-related deaths
[10]
  Decreased appetite, no. of patients with treatment-related AE: 14
  Fatigue, no. of patients with treatment-related AE: 21
  Nausea, no. of patients with treatment-related AE: 28
  Rash (all rash preferred terms), no. of patients with treatment-related AE: 14
  Vomiting, no. of patients with treatment-related AE: 15
  Xeroderma, no. of patients with treatment-related AE: 8
[11]
  Any treatment-related adverse event, no. of patients: 9
  Decreased appetite, no. of patients with treatment-related AE: 0
  Diarrhea, no. of patients with treatment-related AE: 1
  Dysgeusia, no. of patients with treatment-related AE: 0
  Fatigue, no. of patients with treatment-related AE: 0
  Nausea, no. of patients with treatment-related AE: 0
  Rash (all rash preferred terms), no. of patients with treatment-related AE: 5
  Vomiting, no. of patients with treatment-related AE: 0
  Xeroderma, no. of patients with treatment-related AE: 1
Continuous once-daily oral dosing
  Recommended Phase II dose (RP2D): 330 mg
Up to 330mg (21/28 schedule)
  Tolerability: well-tolerated
Whole study
  Patients with grade ≥3 hyperglycemia: 1
